Patent publication US7244738B2, “Arylamine-substituted quinazolinone compounds useful as alpha 1A/B adrenergic receptor antagonists” (Roche Palo Alto LLC, priority 2003, dated 2007)

| melting point [°C] | SMILES |
| --- | --- |
| 174.3 to 176.4 | COc1cc2[nH]c(N(C)Cc3cccc(CN4CCC(O)C4)c3)nc(=O)c2c(OC)c1OC (stereo not shown) [Example 51, 2-{[3-(3-Hydroxy-pyrrolidin-1-ylmethyl)-benzyl]-methyl-amino}-5,6,7-trimethoxy-1H-quinazolin-4-one] |
| 118.1 to 120.8 | CNCC(=O)N(C)C(C)c1cccc(CN(C)c2nc(=O)c3c(C)c(OC)c(OC)cc3[nH]2)c1 (stereo not shown) [Example 52, N-[1-(3-{[(6,7-Dimethoxy-5-methyl-4-oxo-1,4-dihydro-quinazolin-2-yl)-methyl-amino]-methyl}-phenyl)-ethyl]-N-methyl-2-methylamino-acetamide] |
| 222.1 to 226.9 | COc1cc2[nH]c(N(C)Cc3cccc(/N=C(\C)N(C)C)c3)nc(=O)c2c(C#N)c1OC [Example 53, N′-(3-{[(5-Cyano-6,7-dimethoxy-4-oxo-1,4-dihydro-quinazolin-2-yl)-methyl-amino]-methyl}-phenyl)-N,N-dimethyl-acetamide] |
| 114.5 to 116.9 | COCCN(C)C(C)c1cccc(CN(C)c2nc(=O)c3c(C)c(OC)c(OC)cc3[nH]2)c1 (stereo not shown) [Example 54, 6,7-Dimedthoxy-2-[(3-{1-[(2-methoxy-ethyl)-methyl-amino]-ethyl}-benzyl)-methyl-amino]-5-methyl-1H-quinazolin-4-one] |
| 174.9 to 176 | COc1cc2[nH]c(N(C)Cc3cccc(CN(C)C)c3)nc(=O)c2c(C)c1OC [Example 56, 2-[(3-Dimethylaminomethyl-benzyl)-methyl-amino]-6,7-dimethoxy-5-methyl-1H-quinazolin-4-one] |
| 209.3 to 210.8 | COc1cc2[nH]c(N(C)Cc3cccc(N4C(=O)CN(C)C4=O)c3)nc(=O)c2c(C)c1OC [Example 60, 3-(3-{[(6,7-Dimethoxy-5-methyl-4-oxo-1,4-dihydro-quinazolin-2-yl)-methyl-amino]-methyl-}-phenyl)-1-methyl-imidazolidine-2,4-dione] |
| 137 to 140.1 | COc1cc2[nH]c(N(C)Cc3cccc(C(C)N(C)C)c3)nc(=O)c2c(C)c1OC (stereo not shown) [Example 61, 2-{[3-(1-Dimethylamino-ethyl)-benzyl]-methyl-amino}-6,7-dimethoxy-5-methyl-1H-quinazolin-4-one] |
| 122.6 to 125.5 | COc1cc2[nH]c(N(C)Cc3cccc(C(C)N(C)C)c3)nc(=O)c2c(OC)c1OC (stereo not shown) [Example 62, 2-{[3-(1-Dimethylamino-ethyl)-benzyl]-methyl-amino}-5,6,7-trimethoxy-1H-quinazolin-4-one] |
| 131.8 to 134.4 | CNC(C)c1cccc(CN(C)c2nc(=O)c3c(OC)c(OC)c(OC)cc3[nH]2)c1 (stereo not shown) [Example 63, 5,6,7-Trimethoxy-2-{methyl-[3-(1-methylamino-ethyl)-benzyl]-amino}-1H-quinazolin-4-one] |
| 161.6 to 164.1 | CNC(C)c1cccc(CN(C)c2nc(=O)c3c(C)c(OC)c(OC)cc3[nH]2)c1 (stereo not shown) [Example 64, 6,7-Dimethoxy-5-methyl-2-{methyl[3-(1-methylamino-ethyl)-benzyl]-amino}-1H-quinazolin-4-one] |
| 217.8 to 219.2 | COc1cc2[nH]c(N(C)Cc3cccc(N4C(=O)CC(C)C4=O)c3)nc(=O)c2c(C)c1OC (stereo not shown) [Example 65, 1-(3-{[(6,7-Dimethoxy-5-methyl-4-oxo-1,4-dihydro-quinazolin-2-yl)-methyl-amino]-methyl}-phenyl)-3-methyl-pyrrolidine-2,5-dione] |
| 144.5 to 147.6 | COc1cc2[nH]c(N(C)Cc3cccc(CNC4CC4)c3)nc(=O)c2c(C)c1OC [Example 66, 2-[(3-Cyclopropylaminomethyl-benzyl)-methyl-amino]-6,7-dimethoxy-5-methyl-1H-quinazolin-4-one] |
| 143.3 to 144.4 | COc1cc2[nH]c(N(C)Cc3cccc(CNC(C)C)c3)nc(=O)c2c(C)c1OC [Example 67, 2-{[3-(Isopropylamino-methyl)-benzyl]-methyl-amino}-6,7-dimethoxy-5-methyl-1H-quinazolin-4-one] |
| 128.1 to 129.1 | CCCN(C)Cc1cccc(CN(C)c2nc(=O)c3c(C)c(OC)c(OC)cc3[nH]2)c1 [Example 68, 6,7-Dimethoxy-5-methyl-2-(methyl-{3-[(methyl-propyl-amino)-methyl]-benzyl}-amino)-1H-quinazolin-4-one] |
| 142.5 to 142.9 | CNCc1cccc(CNc2nc(=O)c3c(C)c(OC)c(OC)cc3[nH]2)c1 [Example 69, 6,7-Dimethoxy-5-methyl-2-(3-methylaminomethyl-benzylamino)-1H-quinazolin-4-one] |

More lines, now with the values behind:

| SMILES | melting point [°C] |
| --- | --- |
| COc1cc2[nH]c(N(C)Cc3cccc(C(C)N(C)S(C)(=O)=O)c3)nc(=O)c2c(C)c1OC (stereo not shown) [Example 26, N-[1-(3-{[(6,7-Dimethoxy-5-methyl-4-oxo-1,4-dihydro-quinazolin-2-yl)-methyl-amino]-methyl}-phenyl)-ethyl]-N-methyl-methanesulfonamide] | 130 to 133.8 |
| COc1cc2[nH]c(N(C)Cc3cccc(N4C[C@@H](O)CC4=O)c3)nc(=O)c2c(C)c1OC [Example 27, 2-{[3-((S)-4-Hydroxy-2-oxo-pyrrolidin-1-yl)-benzyl]-methyl-amino}-6,7-dimethoxy-5-methyl-1H-quinazolin-4-one] | 230.8 to 232.5 |
| CCN(C)CCc1ccc(CN(C)c2nc(=O)c3c(C)c(OC)c(OC)cc3[nH]2)cc1 [Example 28, 2-({4-[2-(Ethyl-methyl-amino)-ethyl]-benzyl}-methyl-amino)-6,7-dimethoxy-5-methyl-1H-quinazolin-4-one] | 172.4 to 173.2 |
| CNCCOc1ccc(CN(C)c2nc(=O)c3c(C)c(OC)c(OC)cc3[nH]2)cc1OC [Example 29, 6,7-Dimethoxy-2-{[3-methoxy-4-(2-methylamino-ethoxy)-benzyl]-methyl-amino}-5-methyl-1H-quinazolin-4-one] | 168.9 to 169.8 |
| CCN(CCO)Cc1ccc(CN(C)c2nc(=O)c3c(C)c(OC)c(OC)cc3[nH]2)cc1 [Example 30, 2-[(4-{[Ethyl-(2-hydroxy-ethyl)-amino]-methyl}-benzyl)-methyl-amino]-6,7-dimethoxy-5-methyl-1H-quinazolin-4-one] | 142 to 145 |
| COc1cc2[nH]c(N(C)Cc3ccc(OCCO)cc3)nc(=O)c2c(C)c1OC [Example 31, 2-{[4-(2-Hydroxy-ethoxy)-benzyl]-methylamino}-6,7-dimethoxy-5-methyl-1H-quinazolin-4-one] | 198.5 to 199.5 |
| CCN(CCOC)Cc1ccc(CN(C)c2nc(=O)c3c(OC)c(OC)c(OC)cc3[nH]2)cc1 [Example 32, 2-[(4-{[Ethyl(2-methoxy-ethyl)-amino]-methyl}-benzyl)-methyl-amino]-5,6,7-trimethoxy-1H-quinazolin-4-one] | 120 to 122.4 |
| COc1cc2[nH]c(N(C)Cc3cccc(CN(C)CCO)c3)nc(=O)c2c(C)c1OC [Example 33, 2-[(3-{[(2-Hydroxy-ethyl)-methyl-amino]-methyl}-benzyl)-methyl-amino]-6,7-dimethoxy-5-methyl-1H-quinazolin-4-one] | 123.8 to 125.6 |
| COc1cc2[nH]c(N(C)Cc3cccc(CN4CCC(OC)C4)c3)nc(=O)c2c(C)c1OC (stereo not shown) [Example 37, 6,7-Dimetrhoxy-2-{[3-(3-methoxy-pyrrolidin-1-ylmethyl)-benzyl]-methyl-amino}-5-methyl-1H-quinazolin-4-one] | 151.2 to 152.9 |
| COc1cc2[nH]c(N(C)Cc3ccc4c(c3)CN(C)C4)nc(=O)c2c(C)c1OC [Example 38, 6,7-Dimethoxy-5-methyl-2-[methyl-(2-methyl-2,3-dihydro-1H-isoindol-5-ylmethyl)-amino]-1H-quinazolin-4-one] | 214.9 to 224.8 |
| COc1cc2[nH]c(N(C)Cc3cccc(CN4CCC(O)CC4)c3)nc(=O)c2c(OC)c1OC [Example 39, 2-{[3-(4-Hydroxy-piperidin-1-ylmethyl)-benzyl]-methyl-amino}-5,6,7-trimethoxy-1H-quinazolin-4-one] | 97.5 to 104.7 |
| COc1cc2[nH]c(N(C)Cc3cccc(CN4CCC(O)CC4)c3)nc(=O)c2c(C)c1OC [Example 40, 2-{[3-(4-Hydroxy-piperidin-1-ylmethyl)-benzyl]-methyl-amino}-6,7-dimethoxy-5-methyl-1H-quinazolin-4-one] | 159.2 to 159.6 |
| CCNCc1cccc(CN(C)c2nc(=O)c3c(OC)c(OC)c(OC)cc3[nH]2)c1 [Example 43, 2-[(3-Ethylaminomethyl-benzyl)-methyl-amino]-5,6,7-trimethoxy-1H-quinazolin-4-one] | 133.9 to 134.7 |
| COc1cc2[nH]c(N(C)Cc3ccc4c(c3)CN(C)C4)nc(=O)c2c(OC)c1OC [Example 45, 5,6,7-Trimethoxy-2-[methyl-(2-methyl-2,3-dihydro-1H-isoindol-5-ylmethyl)-amino]-1H-quinazolin-4-one] | 165.5 to 166.5 |
| COc1cc2[nH]c(N(C)Cc3cccc(CN4CCCC4)c3)nc(=O)c2c(OC)c1OC [Example 46, 5,6,7-Trimethoxy-2-[methyl-(3-pyrrolidin-1-ylmethyl-benzyl)-amino]-1H-quinazolin-4-one] | 127 to 129.9 |
| COc1cc2[nH]c(N(C)Cc3cccc(CN4CCC4)c3)nc(=O)c2c(OC)c1OC [Example 47, 2-[(3-Azetidin-1-ylmethyl-benzyl)-methyl-amino]-5,6,7-trimethoxy-1H-quinazolin-4-one] | 131.3 to 133.1 |
| COc1cc2[nH]c(N(C)Cc3ccc(OCCCN(C)C)cc3)nc(=O)c2c(OC)c1OC [Example 48, 2-{[4-(3-Dimethylamino-propoxy)-benzyl]-methyl-amino}-5,6,7-trimethoxy-1H-quinazolin-4-one] | 108 to 111 |
| COc1cc2[nH]c(N(C)Cc3cccc(CN4CCC(O)C4)c3)nc(=O)c2c(C)c1OC (stereo not shown) [Example 49, 2-{[3-(3-Hydroxy-pyrrolidin-1-ylmethyl)-benzyl]-methyl-amino}-6,7-dimethoxy-5-methyl-1H-quinazolin-4-one] | 148 to 149.8 |
| COc1cc2[nH]c(N(C)Cc3cccc(N=C4N(C)CCN4C)c3)nc(=O)c2c(C)c1OC [Example 50, 2-{[3-(1,3-Dimethyl-imidazolidin-2-ylidenmeamino)-benzyl]-methyl-amino}-6,7-dimethoxy-5-methyl-1H-quinazoline-4-one] | 200.2 to 204.4 |
